Consider 5 molecules from US20250339631A1, “CONTROLLED RELEASE OF […] A SOURCE MATERIAL STORED OVER TIME” (Syqe Medical Ltd., priority 2022, published 2025).

Structures are written as SMILES.

The nature of data set [1]: Stability of ground MC powder stored under refrigeration, pre-packaging. The class given is physicochemical. Particulars: 5° C.±2° C., baseline to 3 months post grinding; one-way ANOVA. The procedure: In the described experiment, Bedrocan strain MC powder was stored at 5° C.±2° C. with up to 12% relative humidity (RH) in a polypropylene container, sealed in an aluminum foil pouch (Oliver-Tolas Healthcare Packaging B.V.; Venray, Netherlands). In order to assess its stability during the handling and hold time, samples were taken from three separate growing batches and assayed at baseline and at 1, 2 and 3 months post grinding. Each sample was assayed for loss on drying (LOD), and of the concentrations of the major phytocannabinoids (CBDA, CBD, CBGA, CBN, THCA and THC).
(§1) Analysis of cannabis inflorescences for the main phytocannabinoids (CBDA, CBD, CBGA, CBN, THCA and THC) was performed as follows: 100 mg of ground Cannabis inflorescences were weighed in duplicate from one container and extracted with 25 mL methanol then sonicated for 40 min and centrifuged at 3000 rpm for 5 min. All samples were filtered through a 0.22 μm PP filter vail prior to analysis. The dilution and quantitation were preformed corresponding to calibration curves. The main six phytocannabinoids were analyzed by ultra-high-performance liquid chromatography (UHPLC: […]) system with a refrigerated auto-sampler, thermostatic column oven and ultraviolet detector, Waters ACQUITY UPLC H-Class. Chromatographic separation was achieved using UPLC column Waters Acquity C18, 1.7 μm particles, 2.1×150 mm maintained at 30° C. The phytocannabinoids were separated using a gradient elution with mobile phases of 0.1% (v/v) formic acid in double-distilled water (phase A) and acetonitrile (phase B), respectively. A constant flow rate of 0.4 mL/min was employed throughout. The gradient profile varied from 70% to 100% B in 10.5 min, held for 0.5 min in these conditions and then returned to the initial conditions.
(§2) For THC and CBD, the concentrations of the acid and its neutral counterpart were summed and reported as the total content. For example, the concentration of total THC […] was calculated as: Total THC=THCA * 0.877+THC, with 0.877 being the molar ratio between the two compounds that corrects for a change in the mass of THCA as a result of the loss of CO2 (decarboxylation). This is shown in FIG. 7A: “U-HPLC analysis of the Bedrocan cultivar”.
(§3) R software (V.1.1.463) with tidyverse (17) package was used to analyze changes in outcome measures by one way ANOVA test, using Fisher's exact test analysis. All analyses were followed by a Tukey post-hoc test for multiple comparison. Data are presented as Mean±95% confidence interval (CI). Differences were considered significant at the p<0.05 level.

Data set [2] is described as follows: Stability of ground cannabis in Syqe cartridges stored at 30° C. The class given is physicochemical. Particulars: 30° C.±2° C., 65% RH, baseline to 6 months; one-way ANOVA. The procedure:
Additionally, to assess the effects of a warmer temperature on MC, Syqe cartridges were stored post-production at an elevated temperature and humidity of 30° C.±2° C. (65% RH+5% RH). Three different growing batches were analyzed at baseline and at 1, 2, 4 and 6 months of storage.
as §1, §2, §3

Data set [3] is described as follows: Long-term stability of ground cannabis packaged in Syqe cartridges at room temperature. The class given is physicochemical. Particulars: 25° C.±2° C., RH 60%±5%, baseline to 24 months; one-way ANOVA. The procedure: (§4) In some embodiments, once cartridges are produced, they are stored, distributed and used at RT. In order to assess the shelf life of such cartridges, a long-term stability study was performed, during which cartridges were stored at 25° C.±2° C. (RH 60%±5%) in a calibrated and certified stability chamber (Memmert Constant climate chamber HPP260). 9, 6, 9, 8, 7, 4 and 4 separate growing batches were tested at baseline and after 3, 6, 9, 12, 18 and 24 months, respectively. At each time point samples of the ground inflorescence within the cartridges were analyzed for LOD and for the amount (mg) of each of the major phytocannabinoids (CBDA, CBD, CBGA, CBN, THCA and THC). Of the same batches, THC aerosolized by the Syqe inhaler was analyzed at baseline and at 6, 9, 18 and 24 months.
as §1, §2, §3

A short description of data set [4]: THC dose aerosolized by the Syqe inhaler from stored cartridges. Format: physicochemical. The conditions noted are these: inhaler set to 500 μg THC, Mean±95% CI. The procedure: Methods: MC inflorescences were ground to a fine powder and the concentrations of the major phytocannabinoids therein were analyzed at different time points using ultra-high performance liquid chromatography (U-HPLC). Storage was done under different temperature and humidity conditions, before or after being packaged in Syqe cartridges. MC aerosolized by a the Syqe inhaler using Syqe cartridges stored for up to 2 years at 25° C. was analyzed for THC doses.
as §4
In some embodiments, the Syqe inhaler is preprogrammed with several distinct heating protocols. […]

A short description of data set [5]: Vaporization of THC and terpenes from ground cannabis heated to target temperatures. Particulars: 135 mg ground cannabis; vaporized THC measured in the aerosol; targets 60-150° C. The class given is physicochemical. The procedure:
The vaporization plots in FIGS. 6A-B show results of an experiment performed by the inventors in which samples of 135 mg of ground cannabis were heated to several target temperatures, including 60° C., 70° C., 80° C., 90° C., 100° C., 110° C., 120° C., 130° C., 140° C. and 150° C. At each of the target temperatures, vaporized THC was measured in the aerosol. At each of the target temperatures, the residual mass of ground cannabis was analyzed using Gas Chromatography —Mass Spectrometry (GC/MS) to determine existence of terpenes, such as: Linalool, Isopulegol, Geraniol, Caryophyllene, 26.82 Humulene<alpha->and Nerolidol. The total terpenes residue (as remaining in the ground cannabis) is indicated by the dashed line in FIG. 6A. Based on the residual mass of terpenes, the released (vaporized) amount terpenes was calculated, by subtracting the measured residual mass from a respective reference mass.

For data set [6] the following is noted: after four years, room temperature (22 C), light or darkness (storage conditions A and B); cited from earlier work.

As to `CCCCCc1cc2c(c(O)c1C(=O)O)[C@@H]1C=C(C)CC[C@H]1C(C)(C)O2` (relative stereo) [THCA, (-)-Δ^9-trans-tetrahydrocannabinolic acid], the “change in phytocannabinoid concentration during the study period” value in data set [1] is on record as “no significant change”. Further, the “change in phytocannabinoid amount” value in data set [2] and in data set [3] was “decreased significantly” each time.

As to `C=C(C)[C@@H]1CCC(C)=C[C@H]1c1c(O)cc(CCCCC)c(C(=O)O)c1O` [CBDA, cannabidiolic acid], the “change in phytocannabinoid concentration during the study period” value in data set [1] is recorded as “no significant change”. Besides, the “change in phytocannabinoid amount” value in data set [3] is given as “no significant change”.

As for `CCCCCc1cc(O)c(C/C=C(\C)CCC=C(C)C)c(O)c1C(=O)O` [CBGA, cannabigerolic acid], the “change in phytocannabinoid concentration during the study period” value in data set [1] is “no significant change”. Further, the “change in phytocannabinoid amount” value in data set [2] and in data set [3] was “decreased significantly” each time.

In the case of `CCCCCc1cc(O)c2c(c1)OC(C)(C)c1ccc(C)cc1-2` [CBN, Cannabinol], the “change in phytocannabinoid concentration during the study period” value in data set [1] is “no significant change”. Moreover, the “change in phytocannabinoid amount” value in data set [2] and in data set [3] was “increased significantly” throughout.

Take `CCCCCc1cc(O)c2c(c1)OC(C)(C)[C@@H]1CCC(C)=C[C@@H]21` [THC, (-)-Δ^9-trans-tetrahydrocannabinol]: in data set [1], the “change in phytocannabinoid concentration during the study period” value was “no significant change”. Moreover, the “change in phytocannabinoid amount” value in data set [2] and in data set [3] was “increased significantly” each time. The “aerosolized THC dose” value in data set [4] (6 months at 25° C.) was found to be 486.30 ± 50.56 µg; in data set [4] (BL), 484.76 ± 31.28 µg. In addition, in data set [5], the “target temperature at which release started” value stood at 130 degrees C. In data set [6], the THC degraded was ~100%.
